Measurements published in ChEMBL document CHEMBL1201862, “PubChem BioAssay data set” (2004).
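Test compounds were applied to cells in 96-well plates for 48 hours at 5 doses. GI50: concentration for 50% inhibition of growth.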 Activity calls are given as the source filed them. Cut-off read from the data, not from the text of the source: active = GI50 up to about 1.1 µM and inactive = higher.

Key:
Assay in all cases: DTP human tumour cell line panel, 48 h
SF-268 = tested on: SF-268
Hs-578T = tested on: Hs-578T
IGROV-1 = tested on: IGROV-1
M14 = tested on: M14
MDA-MB-231 = tested on: MDA-MB-231
HL-60 = tested on: HL-60
SK-OV-3 = tested on: SK-OV-3
SF-539 = tested on: SF-539
CCRF-CEM = tested on: CCRF-CEM
NCI/ADR-RES = tested on: NCI/ADR-RES
RPMI-8226 = tested on: RPMI-8226
UO-31 = tested on: UO-31
OVCAR-8 = tested on: OVCAR-8
EKVX = tested on: EKVX
U-251 = tested on: U-251
A549 = tested on: A549
UACC-62 = tested on: UACC-62
OVCAR-4 = tested on: OVCAR-4
COLO 205 = tested on: COLO 205
Malme-3M = tested on: Malme-3M

Measured: GI50

CC1=NN(c2cccc(Cl)c2)C(=N/c2nc3ccccc3s2)/C1=C\c1ccc(Cl)cc1
inactive: SF-268 19.3 µM | Hs-578T 23 µM | IGROV-1 13.5 µM | M14 23.8 µM | MDA-MB-231 20.7 µM | HL-60 22.4 µM | SK-OV-3 36.4 µM | SF-539 18.4 µM | CCRF-CEM 26.1 µM | NCI/ADR-RES 22.5 µM | RPMI-8226 37.2 µM | UO-31 23.9 µM | OVCAR-8 19.8 µM | EKVX 33.2 µM | U-251 14.8 µM

CCCC(=O)n1[nH]c(=O)n(-c2ccc(Cl)cc2)c1=O
inactive: SF-268 > 100 µM | Hs-578T > 100 µM | IGROV-1 > 100 µM | A549 > 100 µM | M14 > 100 µM | MDA-MB-231 > 100 µM | UACC-62 > 100 µM | HL-60 > 100 µM | SK-OV-3 > 100 µM | OVCAR-4 > 100 µM | CCRF-CEM > 100 µM | NCI/ADR-RES > 100 µM | COLO 205 > 100 µM | RPMI-8226 > 100 µM | UO-31 > 100 µM | OVCAR-8 > 100 µM | EKVX > 100 µM | Malme-3M 43.4 µM | U-251 > 100 µM

C/C(=N\NC(N)=O)C(CN(C)C)C(c1ccccc1)c1c(O)c2ccccc2oc1=O (centres undefined)
inactive: SF-268 > 100 µM | Hs-578T > 100 µM | IGROV-1 > 100 µM | A549 > 100 µM | M14 > 100 µM | MDA-MB-231 > 100 µM | UACC-62 > 100 µM | HL-60 38.4 µM | SF-539 > 100 µM | OVCAR-4 > 100 µM | CCRF-CEM 90.8 µM | NCI/ADR-RES > 100 µM | COLO 205 36.4 µM | RPMI-8226 61.5 µM | UO-31 > 100 µM | OVCAR-8 > 100 µM | EKVX > 100 µM | Malme-3M 42.4 µM | U-251 > 100 µM

O=C1c2ccccc2/C(=N\c2ccc3ccccc3c2)C1(C1=C(c2ccccc2)/C(=N/c2ccc3ccccc3c2)c2ccccc21)c1ccccc1 (centres undefined)
inactive: SF-268 4.16 µM | Hs-578T 23.2 µM | IGROV-1 6.34 µM | A549 11.1 µM | M14 4.02 µM | MDA-MB-231 15.3 µM | UACC-62 5.15 µM | HL-60 4.5 µM | SK-OV-3 22.1 µM | SF-539 6.15 µM | OVCAR-4 5.37 µM | CCRF-CEM 11.2 µM | NCI/ADR-RES 6.01 µM | COLO 205 6.34 µM | RPMI-8226 3.64 µM | UO-31 4.65 µM | OVCAR-8 6.89 µM | EKVX 28.8 µM | U-251 9.75 µM

O=C1C2CCCCC2C(=O)N1n1c(-c2ccccc2)n[nH]c1=O (centres undefined)
inactive: SF-268 > 100 µM | Hs-578T > 100 µM | IGROV-1 > 100 µM | A549 > 100 µM | M14 > 100 µM | MDA-MB-231 > 100 µM | UACC-62 > 100 µM | SK-OV-3 > 100 µM | SF-539 > 100 µM | OVCAR-4 > 100 µM | CCRF-CEM > 100 µM | NCI/ADR-RES > 100 µM | COLO 205 > 100 µM | RPMI-8226 > 100 µM | UO-31 > 100 µM | OVCAR-8 > 100 µM | EKVX > 100 µM | Malme-3M > 100 µM | U-251 > 100 µM

C[C@@H]1CC[C@@]2(OC1)O[C@H]1[C@@H](O)[C@H]3[C@@H]4CC[C@H]5C[C@@H](O[C@@H]6O[C@H](CO)[C@H](O[C@@H]7O[C@H](CO)C(O)[C@H](O[C@@H]8OC[C@@H](O)[C@H](O)[C@H]8O)[C@H]7O[C@@H]7O[C@H](CO)[C@H](O)[C@H](O[C@@H]8O[C@H](CO)[C@@H](O)[C@H](O)[C@H]8O)[C@H]7O)[C@H](O)[C@H]6O)[C@H](O)C[C@]5(C)[C@H]4CC[C@]3(C)[C@H]1[C@@H]2C (some centres undefined) [DIGITONIN]
inactive: SF-268 2.09 µM | Hs-578T 2.06 µM | IGROV-1 2.83 µM | A549 2.17 µM | M14 12.4 µM | MDA-MB-231 2.48 µM | UACC-62 4 µM | HL-60 2.9 µM | SK-OV-3 2.36 µM | SF-539 2.98 µM | OVCAR-4 1.97 µM | CCRF-CEM 2.86 µM | NCI/ADR-RES 3.89 µM | COLO 205 1.68 µM | RPMI-8226 3.15 µM | UO-31 1.94 µM | OVCAR-8 2.02 µM | EKVX 3.13 µM | U-251 3.43 µM

O=CNc1ccc2c(c1)C(=O)c1ccccc1-2
inactive: SF-268 47.3 µM | Hs-578T 24.1 µM | IGROV-1 44.1 µM | A549 > 100 µM | M14 > 100 µM | MDA-MB-231 > 100 µM | UACC-62 49.9 µM | HL-60 49.1 µM | SK-OV-3 > 100 µM | SF-539 75.5 µM | OVCAR-4 > 100 µM | CCRF-CEM 41.2 µM | NCI/ADR-RES > 100 µM | COLO 205 67.5 µM | RPMI-8226 61.4 µM | UO-31 47.3 µM | OVCAR-8 50.9 µM | EKVX 4.69 µM | U-251 65 µM
